Measurements as given in patent publication US4946834A, “Phosphonic acid substituted steroids as steroid 5α-reductase inhibitors” (priority 1988, dated 1990).
Where two headings read alike, the source gives them in different places.

Experiments:
steroid 5α-reductase = details: cited from earlier work; for mode of inhibition (in words): literature statement in text; for reversibility of inhibition (Reversible / Irreversible): printed in parentheses beside K1; for Ki: read-out: K1
[1] = target: T1, human steroid 5α-reductase (Homo sapiens, UniProt P31213); test: Inhibition of human prostatic steroid 5α-reductase ([14C]-testosterone conversion, Dixon analysis); format: biochemical
T1 construct: using tissue from hyperplastic human prostates; from tissue; host or cells: frozen human prostates (hyperplastic), washed particulate fraction from differential centrifugation
T1 sequence (P31213 1-254): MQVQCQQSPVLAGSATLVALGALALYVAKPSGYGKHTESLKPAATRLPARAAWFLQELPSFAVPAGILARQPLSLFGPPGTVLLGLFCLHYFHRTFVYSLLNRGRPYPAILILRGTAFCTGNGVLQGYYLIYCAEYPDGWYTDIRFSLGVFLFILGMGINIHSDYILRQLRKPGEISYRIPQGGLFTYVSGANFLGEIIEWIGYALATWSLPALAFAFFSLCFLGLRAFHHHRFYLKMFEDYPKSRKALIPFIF
Procedure: In determining potency in inhibiting the human enzyme, the following procedure was employed:
The resulting pellet was suspended in 20 mM potassium phosphate buffer, pH 6.5, containing 20% glycerol, 1 mM dithiothreitol, and 50 μM NADPH. The suspended particulate solution was stored at -80° C.
To each tube was added buffer, 20 μl of 10 mM NADPH and an aliquot of prostatic particulate solution to a final volume of 1.0 ml of 50 mM sodium citrate, pH 5.0. After incubating the solution at 37° C. for 20 to 30 minutes the reaction was quenched by the addition of 4 ml ethyl acetate and 0.25 μmol each of testosterone, dihydrotestosterone, androstanediol, and androstanedione as carriers. […] The radiochemical content in the bands of the substrate and the products was determined with a BIOSCAN Imaging Scanner (Bioscan, Inc., Washington, D.C.). The percent of recovered radiolabel converted to product was calculated, from which enzyme activity was determined. […]
The experimentally obtained data was computer fitted to a linear function by plotting the reciprocal of the enzyme activity (1/velocity) against the variable inhibitor concentration (Dixon, M. (1953), Biochem. J., 55, 170). Assuming that the steroidal inhibitor is a competitive inhibitor against testosterone, a value for the inhibition constant (Ki) can be calculated from equation 1: […]

[2] = 5α-reductase inhibitors, literature reference given per compound

For `CC(CO)[C@H]1CC[C@H]2[C@@H]3CC[C@H]4C(=[N+]=[N-])C(=O)CC[C@]4(C)[C@H]3CC[C@]12C` (some centres unmarked) [(3)], the “mode of inhibition (in words)” value (steroid 5α-reductase) is listed as “potent, time-dependent inhibitor of steroid 5α-reductase”, the “reversibility of inhibition (Reversible / Irreversible)” value (steroid 5α-reductase) is listed as “Irreversible” and the Ki (steroid 5α-reductase; unit inferred, Blohm, et al., 1980) is listed as 35 nM.

For `CC(=O)C1CCC2C3CC=C=CC(=O)CCC(=O)C3CCC12C` (centres unmarked) [(2)], the Ki (steroid 5α-reductase; [2]) is given as 1000 nM and the “reversibility of inhibition (Reversible / Irreversible)” value (steroid 5α-reductase) is given as “Irreversible”.

In the case of `C=C1C[C@@H]2[C@H](CC[C@@]3(C)[C@H]2CC[C@]3(OC(C)=O)C(C)=O)[C@@]2(C)CCC(=O)C=C12` [(5)], the Ki (steroid 5α-reductase; [2]) is given as 1250 nM, the “mode of inhibition (in words)” value (steroid 5α-reductase) is given as “time dependent inactivator of steroid 5α-reductase” and the “reversibility of inhibition (Reversible / Irreversible)” value (steroid 5α-reductase) is given as “Irreversible”.

Molecule `CC(C)N(C(=O)[C@H]1CC[C@H]2[C@@H]3CC=C4C=C(P(=O)(O)O)CC[C@]4(C)[C@H]3CC[C@]12C)C(C)C` [Example 1, 17β-(N,N-diisopropylcarboxamide)-androst-3,5-diene-3phosphonic acid] has a Ki ([1]; hyperplastic human prostate particulate, pH 5.0, 37° C., 20 to 30 minutes, competitive inhibition against testosterone assumed, read-out: Ki (inhibition constant of human prostatic steroid 5α-reductase)) of 15 to 40 nM.

For `CC(C)N(C(=O)[C@H]1CC[C@H]2[C@@H]3CCC4=CC(P(=O)(O)O)=CC[C@]4(C)[C@H]3CC[C@]12C)C(C)C` [Example 30, 17β-(N,N-diisopropylcarboxamide)-androst-2,4-diene-3-phosphonic acid], the Ki [1] was 160 nM.

For `C[C@]12CC[C@H]3[C@@H](CCC4=CC(=O)CC[C@@]43C)[C@@H]1CC[C@@H]2C(=O)O` [(1)], the Ki (steroid 5α-reductase; [2]) is given as 1100 nM and the “reversibility of inhibition (Reversible / Irreversible)” value (steroid 5α-reductase) is given as “Reversible”.

For `CCN(CC)C(=O)[C@H]1CC[C@H]2[C@@H]3CC[C@H]4N(C)C(=O)CC[C@]4(C)[C@H]3CC[C@]12C` [(4)], the Ki (steroid 5α-reductase; [2]) is given as 5 nM and the “reversibility of inhibition (Reversible / Irreversible)” value (steroid 5α-reductase) is given as “Reversible”.
